Legend:
SHV-5, lysate of ec308 = SHV-5, lysate of ec308 (Escherichia coli, UniProt P0AD63, E235K/G234S); assay: Inhibition of ceftazidime hydrolysis by bacterial lysate
[1] = biological target: various β-lactamases (bacterial lysates) (Escherichia coli, UniProt Q53TY8); assay: Inhibition of nitrocefin cleavage by bacterial lysates, Table 11; type: biochemical; conditions: lysate EC1010 pAmpC (CMY-6), read-out: NCF IC50 EC1010 pAmpC (CMY-6)
SHV-2, lysate of ec306 = SHV-2, lysate of ec306 (Escherichia coli, UniProt P0A9Z7); assay: Inhibition of ceftazidime hydrolysis by bacterial lysate
OXA-10, lysate of KP1007 = OXA-10, lysate of KP1007 (Pseudomonas aeruginosa, UniProt P14489); assay: as above
[2] = tested on: strains expressing KPC alone or in combination with additional beta-lactamases; assay: microbe, parasite or virus in culture; type: cell-based
[3] = Enterobacter cloacae ECL1058, KPC-3, SHV-11, TEM-1, Compound 5 0.31 mg/L
[4] = Enterobacter cloacae ECL1058, KPC-3, SHV-11, TEM-1, Compound 5 0.625 mg/L
[5] = Enterobacter cloacae ECL1059, KPC-3, SHV-12, TEM-1, Compound 5 0.31 mg/L
[6] = Enterobacter cloacae ECL1059, KPC-3, SHV-12, TEM-1, Compound 5 0.625 mg/L
[7] = Enterobacter cloacae ECL1059, KPC-3, SHV-12, TEM-1, Compound 5 5 mg/L
[8] = Enterobacter cloacae ECL1059, KPC-3, SHV-12, TEM-1, Compound 5 10 mg/L
[9] = Enterobacter cloacae ECL1059, KPC-3, SHV-12, TEM-1, Compound 5 […]
[10] = Escherichia coli EC1007, KPC-3, Compound 5 0.31 mg/L
[11] = Escherichia coli EC1007, KPC-3, Compound 5 0.625 mg/L
[12] = Escherichia coli EC1007, KPC-3, Compound 5 5 mg/L
[13] = Escherichia coli EC1007, KPC-3, Compound 5 10 mg/L
[14] = Escherichia coli EC1007, KPC-3, Compound 5 […]
[15] = Klebsiella oxytoca KX1017, KPC-2, OXA-2, SHV-30, Compound 5 0.31 mg/L
[16] = Klebsiella oxytoca KX1017, KPC-2, OXA-2, SHV-30, Compound 5 0.625 mg/L
[17] = Klebsiella oxytoca KX1017, KPC-2, OXA-2, SHV-30, Compound 5 5 mg/L
[18] = Klebsiella oxytoca KX1017, KPC-2, OXA-2, SHV-30, Compound 5 10 mg/L
[19] = Klebsiella oxytoca KX1018, KPC-2, SHV-40, OXY-1, Compound 5 0.31 mg/L
[20] = Klebsiella oxytoca KX1018, KPC-2, SHV-40, OXY-1, Compound 5 0.625 mg/L
[21] = Klebsiella oxytoca KX1018, KPC-2, SHV-40, OXY-1, Compound 5 […]
[22] = Klebsiella oxytoca KX1019, KPC-2 OXA-2, Compound 5 0.625 mg/L
[23] = Klebsiella pneumoniae KP 1004, KPC-2, Compound 5 0.31 mg/L
[24] = Klebsiella pneumoniae KP 1004, KPC-2, Compound 5 0.625 mg/L

O=C(O)C[C@@H]1CC[C@H](NC(=O)Cc2cccs2)B(O)O1 [Compound 5, 2-((3R,6S)-2-hydroxy-3-(2-(thiophen-2-yl)acetamido)-1,2-oxaborinan-6-yl)acetic acid]
IC50 (SHV-5, lysate of ec308): > 3.37 µM
IC50 [1]: > 6.73 µM
IC50 (SHV-2, lysate of ec306): 0.337 to 3.37 µM
IC50 (OXA-10, lysate of KP1007): 0.337 to 3.37 µM
potentiation of carbapenems [2]: significantly potentiate multiple carbapenems
MIC of Doripenem [2, 3]: Y (MIC of 0.5 mg/L to 4 mg/L)
MIC of Ertapenem [2, 3]: Z (MIC of greater than 4 mg/L)
MIC of Doripenem [2, 4]: Y (MIC of 0.5 mg/L to 4 mg/L)
MIC of Ertapenem [2, 4]: Z (MIC of greater than 4 mg/L)
MIC of Ertapenem ([2]; Enterobacter cloacae ECL1058, KPC-3, SHV-11, TEM-1, Compound 5 5 mg/L): X (MIC of less than 0.5 mg/L)
MIC of Ertapenem ([2]; Enterobacter cloacae ECL1058, KPC-3, SHV-11, TEM-1, Compound 5 10 mg/L): X (MIC of less than 0.5 mg/L)
MIC of Doripenem ([2]; Enterobacter cloacae ECL1058, KPC-3, SHV-11, TEM-1, Compound 5 […]): Y (MIC of 0.5 mg/L to 4 mg/L)
MIC of Doripenem [2, 5]: X (MIC of less than 0.5 mg/L)
MIC of Ertapenem [2, 5]: X (MIC of less than 0.5 mg/L)
MIC of Doripenem [2, 6]: X (MIC of less than 0.5 mg/L)
MIC of Ertapenem [2, 6]: X (MIC of less than 0.5 mg/L)
MIC of Biapenem [2, 7]: X (MIC of less than 0.5 mg/L)
MIC of Doripenem [2, 7]: X (MIC of less than 0.5 mg/L)
MIC of Ertapenem [2, 7]: X (MIC of less than 0.5 mg/L)
MIC of Biapenem [2, 8]: X (MIC of less than 0.5 mg/L)
MIC of Doripenem [2, 8]: X (MIC of less than 0.5 mg/L)
MIC of Ertapenem [2, 8]: X (MIC of less than 0.5 mg/L)
MIC of Biapenem [2, 9]: X (MIC of less than 0.5 mg/L)
MIC of Doripenem [2, 9]: X (MIC of less than 0.5 mg/L)
MIC of Ertapenem [2, 9]: X (MIC of less than 0.5 mg/L)
MIC of Doripenem [2, 10]: X (MIC of less than 0.5 mg/L)
MIC of Ertapenem [2, 10]: X (MIC of less than 0.5 mg/L)
MIC of Doripenem [2, 11]: X (MIC of less than 0.5 mg/L)
MIC of Ertapenem [2, 11]: X (MIC of less than 0.5 mg/L)
MIC of Doripenem [2, 12]: X (MIC of less than 0.5 mg/L)
MIC of Ertapenem [2, 12]: X (MIC of less than 0.5 mg/L)
MIC of Biapenem [2, 13]: X (MIC of less than 0.5 mg/L)
MIC of Doripenem [2, 13]: X (MIC of less than 0.5 mg/L)
MIC of Ertapenem [2, 13]: X (MIC of less than 0.5 mg/L)
MIC of Doripenem [2, 14]: X (MIC of less than 0.5 mg/L)
MIC of Ertapenem [2, 14]: X (MIC of less than 0.5 mg/L)
MIC of Biapenem [2, 15]: Y (MIC of 0.5 mg/L to 4 mg/L)
MIC of Doripenem [2, 15]: Y (MIC of 0.5 mg/L to 4 mg/L)
MIC of Ertapenem [2, 15]: Y (MIC of 0.5 mg/L to 4 mg/L)
MIC of Doripenem [2, 16]: Y (MIC of 0.5 mg/L to 4 mg/L)
MIC of Ertapenem [2, 16]: Y (MIC of 0.5 mg/L to 4 mg/L)
MIC of Biapenem [2, 17]: X (MIC of less than 0.5 mg/L)
MIC of Doripenem [2, 17]: X (MIC of less than 0.5 mg/L)
MIC of Ertapenem [2, 17]: X (MIC of less than 0.5 mg/L)
MIC of Biapenem [2, 18]: X (MIC of less than 0.5 mg/L)
MIC of Doripenem [2, 18]: X (MIC of less than 0.5 mg/L)
MIC of Ertapenem [2, 18]: X (MIC of less than 0.5 mg/L)
MIC of Biapenem [2, 19]: X (MIC of less than 0.5 mg/L)
MIC of Doripenem [2, 19]: X (MIC of less than 0.5 mg/L)
MIC of Ertapenem [2, 19]: X (MIC of less than 0.5 mg/L)
MIC of Biapenem [2, 20]: X (MIC of less than 0.5 mg/L)
MIC of Doripenem [2, 20]: X (MIC of less than 0.5 mg/L)
MIC of Ertapenem [2, 20]: X (MIC of less than 0.5 mg/L)
MIC of Biapenem [2, 21]: X (MIC of less than 0.5 mg/L)
MIC of Doripenem [2, 21]: X (MIC of less than 0.5 mg/L)
MIC of Ertapenem [2, 21]: X (MIC of less than 0.5 mg/L)
MIC of Ertapenem ([2]; Klebsiella oxytoca KX1019, KPC-2 OXA-2, Compound 5 0.31 mg/L): Y (MIC of 0.5 mg/L to 4 mg/L)
MIC of Doripenem [2, 22]: Y (MIC of 0.5 mg/L to 4 mg/L)
MIC of Ertapenem [2, 22]: Y (MIC of 0.5 mg/L to 4 mg/L)
MIC of Ertapenem ([2]; Klebsiella oxytoca KX1019, KPC-2 OXA-2, Compound 5 5 mg/L): X (MIC of less than 0.5 mg/L)
MIC of Ertapenem ([2]; Klebsiella oxytoca KX1019, KPC-2 OXA-2, Compound 5 10 mg/L): X (MIC of less than 0.5 mg/L)
MIC of Ertapenem ([2]; Klebsiella oxytoca KX1019, KPC-2 OXA-2, Compound 5 […]): Y (MIC of 0.5 mg/L to 4 mg/L)
MIC of Biapenem [2, 23]: X (MIC of less than 0.5 mg/L)
MIC of Doripenem [2, 23]: X (MIC of less than 0.5 mg/L)
MIC of Ertapenem [2, 23]: Y (MIC of 0.5 mg/L to 4 mg/L)
MIC of Biapenem [2, 24]: X (MIC of less than 0.5 mg/L)
MIC of Doripenem [2, 24]: X (MIC of less than 0.5 mg/L)
MIC of Ertapenem [2, 24]: Y (MIC of 0.5 mg/L to 4 mg/L)
MIC of Biapenem ([2]; Klebsiella pneumoniae KP 1004, KPC-2, Compound 5 5 mg/L): X (MIC of less than 0.5 mg/L)

Source: patent publication US11090319B2, “Therapeutic uses of pharmaceutical compositions comprising cyclic boronic acid ester derivatives” (Melinta Subsidiary Corp., priority 2010, dated 2021)
